In brackets after ≈: the same amount, converted by molar mass.
Experiment: Solubility of elraglusib in simulated intestinal fluid
Format: physicochemical
Experimental: Solubility of elraglusib in simulated intestinal fluid with varying levels of SIF powder was measured to support formulation development, facilitate interpretation of in vitro dissolution, and support potential modeling and interpretation of in vivo pharmacokinetic data. The obtained solubility data are shown in Table 6-19 and is generally aligned with data previously collected for elraglusib.

Cn1cc(C2=C(c3coc4ccc(F)cc34)C(=O)NC2=O)c2cc3c(cc21)OCO3 [elraglusib, 3-(5-fluorobenzofuran-3-yl)-4-(5-methyl-5H-[1,3]dioxolo[4,5-f]indol-7-yl)-1H-pyrrole-2,5-dione]
Average Concentration, 2 hour (0.01N HCl, initial pH 2, [NaTC] 0 mM, 2 hour): 2.1 µg/mL | Average Concentration, 24 hour (0.01N HCl, initial pH 2, [NaTC] 0 mM): 1.4 µg/mL | Average Concentration, 2 hour (0.5% Simulated Intestinal Fluid (SIF), initial pH 6.5, [NaTC] 6.7 mM, 2 hour): 6.0 µg/mL | Average Concentration, 24 hour (0.5% Simulated Intestinal Fluid (SIF), initial pH 6.5, [NaTC] 6.7 mM): 4.7 µg/mL | Average Concentration, 2 hour (2% SIF, initial pH 6.5, [NaTC] 26.8 mM, 2 hour): 17.0 µg/mL | Average Concentration, 24 hour (2% SIF, initial pH 6.5, [NaTC] 26.8 mM): 17.3 µg/mL | Average Concentration, 2 hour (Blank FaSSIF, initial pH 6.5, [NaTC] 0 mM, 2 hour): 2.5 µg/mL | Average Concentration, 24 hour (Blank FaSSIF, initial pH 6.5, [NaTC] 0 mM): 2.6 µg/mL | Average Concentration, 2 hour (Blank FeSSIF, initial pH 5, [NaTC] 0 mM, 2 hour): 2.4 µg/mL | Average Concentration, 24 hour (Blank FeSSIF, initial pH 5, [NaTC] 0 mM): 2.6 µg/mL | Average Concentration, 24 hour (FaSSIF, initial pH 6.5, [NaTC] 3 mM): 5.7 µg/mL | solubility (FaSSIF, pH 6.5, fassif, thermodynamic from solid, read-out: measured solubility of crystalline elraglusib): 5.7 µg/mL (≈ 14.1 µM) | Average Concentration, 2 hour (FeSSIF, initial pH 5, [NaTC] 15 mM, 2 hour): 8.4 µg/mL | Average Concentration, 24 hour (FeSSIF, initial pH 5, [NaTC] 15 mM): 11.6 µg/mL | pH dependence of equilibrium solubility (simulated intestinal fluid): essentially independent of pH | solubility thermodynamic at 2 h (thermodynamic from solid, FaSSIF, initial pH 6.5, [NaTC] 3 mM, 2 hour, read-out: Average Concentration, 2 hour): 5.2 µg/mL (≈ 12.9 µM)
